Data from article PMC9525761, “Cytotoxicity and Genotoxicity of Biogenic Silver Nanoparticles in A549 and BEAS-2B Cell Lines” (Bioinorganic Chemistry and Applications, 2022).
Where two headings read alike, the source gives them in different places.

What was measured:
Format in all cases: cell-based, human
BEAS-2B cells [1] = experiment: MTT cytotoxicity assay, BEAS-2B cells; conditions: for IC50: table prints none, read-out: average IC50, BEAS-2B cells (mean ± SD)
A549 cells [2] = experiment: Intracellular ROS, CM-H2DCFDA assay, A549 cells; conditions: A549, treated with IC50 for 24 hours; control (untreated cells) set to 1
Protocol: (§1) After exposure, cells were washed with PBS and loaded with 2.5 μM of CM-H2DCFDA in phenol red and FBS-free media in the dark for 30 minutes at 37°C. Subsequently, the reaction mixture was aspirated; cells were washed with fresh culture media and replaced with 100 μL of culture media. The DCF fluorescence intensity was measured at 485 nm excitation and 520 nm emission using a FLUOstar Omega fluorescence plate reader (BMG Labtech, Ortenberg, Germany). Results are presented as mean fold change ± standard deviation of three independent experiments.

BEAS-2B cells [3] = experiment: Intracellular ROS, CM-H2DCFDA assay, BEAS-2B cells; conditions: treated with IC50 for 24 hours, control (untreated cells) set to 1
Protocol: as §1

A549 cells [4] = experiment: Apoptosis by DAPI and AO/PI double staining, A549 cells; conditions: A549, IC50, 24 hours
Protocol: (§2) DAPI staining is used to assess apoptosis-related morphological changes such as nuclear fragmentation or condensation. […] AO stains both live and dead cells, whereas PI stains only the dead cells. […] Following incubation, the cells were washed with PBS and then fixed with 1 mL of 4% paraformaldehyde (Sigma-Aldrich, St. Louis, Missouri, USA) and cold 70% ethanol for 10 minutes at room temperature. Then, the cells were stained with a 1 : 1 ratio of 10 µg/mL of DAPI (Nacalai, Tesque chemical, Kyoto, Japan) and 10 μg/mL acridine orange/propidium iodide (Sigma-Aldrich, St. Louis, Missouri, USA) and incubated for 30 minutes in the dark. An Olympus IX71 inverted fluorescence microscope (Olympus, Tokyo, Japan) was used to observe and record the morphology of the cells.

BEAS-2B cells [5] = experiment: Apoptosis by DAPI and AO/PI double staining, BEAS-2B cells; conditions: IC50, 24 hours
Protocol: as §2

BEAS-2B cells [6] = experiment: Comet Assay DNA damage, BEAS-2B cells; parameters: key to DNA damage class (comet visual scoring, Classes 0–4): Class 4: Classes 0–4 to be used for visual scoring. The increased number of classes represents the increase in DNA damage severity; Class 3: Classes 0–4 to be used for visual scoring. The increased number of classes represents the increase in DNA damage severity; Class 2: Classes 0–4 to be used for visual scoring. The increased number of classes represents the increase in DNA damage severity; conditions: for DNA damage class (comet visual scoring, Classes 0–4): IC50 for 24 h (H2O2: 100 μM); for % DNA in tail / Olive tail moment / Tail length (px): IC50 for 24 h (H2O2: 100 μM, 20 minutes)
Protocol: (§3) The Comet Assay® kit (Trevigen, Inc, USA) was used to perform DNA damage activity analysis. […] After being detached by Accutase (BD™Bioscience, USA), the cells were collected and washed with ice-cold PBS. […] The cells were then lysed in the lysis solution at 4°C for 30 minutes. Then, the cells were kept in an alkaline unwinding solution at room temperature for 20 minutes to allow the DNA to unwind. The test was immediately followed by electrophoresis, performed at 21 V and 300 mA for 30 minutes. Slides were washed in 70% ethanol and water and stained with SYBR® gold nucleic acid gel stain (Invitrogen, Thermo Fisher Scientific, USA) before visualisation under the Olympus IX71 inverted fluorescence microscope (Olympus, Tokyo, Japan). A total of 50 cells were randomly selected and captured per sample at 100× magnification and analysed using the Open Comet Image J available at https:/www.cometbio.org/. Tail length, percentage of tail DNA, and Olive Tail Moment (OTM) were calculated for DNA damage assessment.

A549 cells [7] = experiment: Comet Assay DNA damage, A549 cells; parameters: key to DNA damage class (comet visual scoring, Classes 0–4): Class 4: Classes 0–4 to be used for visual scoring. The increased number of classes represents the increase in DNA damage severity; Class 3: Classes 0–4 to be used for visual scoring. The increased number of classes represents the increase in DNA damage severity; Class 2: Classes 0–4 to be used for visual scoring. The increased number of classes represents the increase in DNA damage severity; conditions: for DNA damage class (comet visual scoring, Classes 0–4): IC50 for 24 h (H2O2: 100 μM); for % DNA in tail / Olive tail moment / Tail length (px): IC50 for 24 h (H2O2: 100 μM, 20 minutes)
Protocol: as §3

A549 cells [8] = experiment: MTT cytotoxicity assay, A549 cells (with selectivity index); conditions: for Selectivity index (SI): IC50 normal cells (BEAS-2B) / IC50 cancer cells (A549); for IC50: table prints none, read-out: average IC50, A549 cells (mean ± SD)
Protocol: Both A549 and BEAS-2B cells were originally purchased from the American Type Culture Collection (ATCC, USA). Both cells were cultured in Dulbecco's Modified Eagle's Medium (DMEM: Gibco, USA) and 1 : 1 mixture of DMEM and Ham's F-12 (DMEM-F12; Gibco, USA) medium with phenol red and supplemented with 10% fetal bovine serum (FBS; Gibco, USA), 0.1% (v/v) penicillin-streptomycin, and 2 mM L-glutamine (PenStrep; Gibco, USA). The cell lines were maintained in a humidified environment at 37°C with 5% CO2.
The culture medium alone (without cells) was included as a blank for this test. A549 and BEAS-2B cells were treated with Cisplatin as a positive control. A total of 10 μL of MTT solution (5 mg/mL) was applied to each well at about 24 to 72 hours after treatment and was further incubated for 4 hours in the dark at 37°C with 5% CO2. Upon incubation, the mixture solution was aspirated, and 100 μL of dimethyl sulfoxide (DMSO) (Fisher Scientific, USA) was added to solubilise the purple formazan. The optical density (O.D.) of each sample was measured at a 570 nm wavelength using a microplate reader (BioTek Instruments, Inc, USA). The percentage (%) of cell viability was determined using the following formula [37]:(1) Cell viability%=O.D.treatment–O.D.blank/O.D.untreated cell–O.D.blank×100%.
Based on the measured cell viability (%), a graph was created to display the dose-response curves for each cell line. […] The data was expressed as a mean and standard deviation with each experiment consisting of triplicates. Statistical differences between untreated cells and treated cells were determined using Student's t-test (IBM SPSS Statistics 27).

Structure (SMILES) | IC50 (BEAS-2B cells [1]; 24 h) [µM] | IC50 (BEAS-2B cells [1]; 48 h) [µM] | IC50 (BEAS-2B cells [1]; 72 h) [µM] | DNA damage class (comet visual scoring, Classes 0–4) (BEAS-2B cells [6]) | % DNA in tail (BEAS-2B cells [6]) [%] | Olive tail moment (BEAS-2B cells [6]) | Tail length (px) (BEAS-2B cells [6]) | DNA damage class (comet visual scoring, Classes 0–4) (A549 cells [7]) | % DNA in tail (A549 cells [7]) [%] | Olive tail moment (A549 cells [7]) | Tail length (px) (A549 cells [7]) | also measured
O=[N+]([O-])[O-].[Ag+] [AgNO3, silver nitrate] | 16 ± 0.03 | 15 ± 0.02 | 14 ± 0.02 |  |  |  |  |  |  |  |  | concentrations decreasing proliferation of BEAS-2B cells to nearly 50% (BEAS-2B cells [1]; after 24 to 74 hours of treatment (so in the source)): 20 to 100 µM
N.N.[Cl][Pt][Cl] [Cisplatin] | 69.2 ± 1.75 | 31.6 ± 3.27 | 18.84 ± 0.13 | Class 4 | 63.79 ± 3.01 | 78.49 ± 0.8 | 160.07 ± 3.3 | Class 3 | 48.26 ± 4.54 | 28.81 ± 4.94 | 73.83 ± 8.9 | ROS level, DCF fold (A549 cells [2]): 1.16 ± 0.04 fold change; ROS level, DCF fold (BEAS-2B cells [3]): 1.23 ± 0.01 fold change; mode of cell death (DAPI, AO/PI staining), in words (A549 cells [4]): induce apoptosis; mode of cell death (DAPI, AO/PI staining), in words (BEAS-2B cells [5]): induce apoptosis; concentration at which BEAS-2B cells were significantly dead (BEAS-2B cells [1]; all three time points (24, 48, 72 h)): 65 µM; Selectivity index (SI) (A549 cells [8]; 24 h): 1.32; Selectivity index (SI) (A549 cells [8]; 48 h): 1.66; Selectivity index (SI) (A549 cells [8]; 72 h): 1.08; IC50 (A549 cells [8]; MTT, 24 h): 52.5 ± 7.92 µM; IC50 (A549 cells [8]; MTT, 48 h): 19.1 ± 3.19 µM; IC50 (A549 cells [8]; MTT, 72 h): 17.5 ± 0.6 µM; concentration at which A549 cells were significantly dead (A549 cells [8]; MTT, all three time points (24, 48, 72 h)): 50 µM
OO [H2O2] |  |  |  | Class 4 | 85.86 ± 2.71 | 27.63 ± 4.6 | 53.91 ± 9.95 | Class 2 | 35.64 ± 9.31 | 9.51 ± 3.49 | 25.3 ± 6.96 | 
